In one data set the target is T1, human recombinant FAP (Homo sapiens, UniProt Q12884).
T1 construct: purchased BPS Bioscience, San Diego, CA
T1 sequence (Q12884 26-760 limits assumed): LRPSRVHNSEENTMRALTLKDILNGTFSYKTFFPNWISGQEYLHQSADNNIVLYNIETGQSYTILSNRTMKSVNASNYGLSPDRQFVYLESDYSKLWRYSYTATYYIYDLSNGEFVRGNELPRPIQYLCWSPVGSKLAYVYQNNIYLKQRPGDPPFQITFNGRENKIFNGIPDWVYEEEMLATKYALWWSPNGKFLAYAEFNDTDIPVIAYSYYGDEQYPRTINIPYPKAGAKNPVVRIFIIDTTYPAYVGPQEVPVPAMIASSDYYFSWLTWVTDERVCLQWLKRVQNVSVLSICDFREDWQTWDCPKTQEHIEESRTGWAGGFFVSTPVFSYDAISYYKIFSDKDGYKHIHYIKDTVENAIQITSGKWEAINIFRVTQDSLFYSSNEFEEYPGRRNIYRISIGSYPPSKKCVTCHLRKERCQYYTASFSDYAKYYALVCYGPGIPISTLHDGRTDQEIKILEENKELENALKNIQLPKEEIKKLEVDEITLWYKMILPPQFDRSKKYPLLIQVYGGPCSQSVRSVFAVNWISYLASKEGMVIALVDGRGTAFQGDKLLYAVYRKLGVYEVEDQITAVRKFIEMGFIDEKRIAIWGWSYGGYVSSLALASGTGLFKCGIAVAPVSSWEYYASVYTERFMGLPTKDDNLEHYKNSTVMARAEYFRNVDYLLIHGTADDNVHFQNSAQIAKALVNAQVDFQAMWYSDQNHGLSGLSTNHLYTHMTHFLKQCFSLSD
The data set is described as follows: FAP Inhibition Assay (fluorogenic FAP Assay Kit). Type of data set: biochemical. Particulars: DPP substrate, 10 minutes at room temperature, Ki from IC50 by Cheng-Prusoff conversion, read-out: enzyme inhibitory constant (Ki). As to the method:
1.4 FAP Inhibition Assay. The inhibitory activity of XY-FAP-01 was determined using a fluorogenic FAP Assay Kit (BPS Bioscience, San Diego, CA). Briefly, XY-FAP-01, DPP substrate, and human recombinant FAP were loaded into a 96 well plate to initiate the enzyme reaction. The reaction was left for 10 minutes at room temperature before fluorescence was measured with a VICTOR3 V multilabel plate reader (PerkinElmer Inc., Waltham, MA). Data was normalized and semi-log inhibition curves were generated in order to determine the IC50 value (concentration of XY-FAP-01 where the enzyme activity is 50% inhibited) for XY-FAP-01 and subsequent enzyme inhibition constant (Ki) using the Cheng-Prusoff conversion. Generation of semi-log inhibition curves and IC50 values were done using GraphPad Prism (San Diego, CA).

Data set [1] relates to FAP-positive cell lines (NCIH2228, U87, and SKMEL24). The data set is described as follows: Cellular uptake of XY-FAP-01 in FAP-positive cell lines (fluorescence imaging). It counts as cell-based, human. From the text: (§1) 1.5 Cell lines. Six human cancer cell lines were used to assess binding to FAP: glioblastoma (U-87-MG), melanoma (SK-MEL-24), prostate (PC-3), non-small cell lung cancer (NCI-H2228), colorectal carcinoma (HCT 116), and lung squamous cell carcinoma (NCI-H226). From the literature, U-87-MG, SK-MEL-24, and NCI-H2228 cell lines were identified as having high levels of FAP expression [FAP-positive (+)] whereas PC-3, NCI-H226, and HCT 116 cells expressed very low levels of FAP [FAP-negative(−)]. These expression profiles were further confirmed via flow cytometry with an APC-conjugated anti-FAP antibody (R&D Systems, Minneapolis, MN) and quantitative real-time PCR. All cell lines were purchased from American Type Culture Collection (ATCC, Manassas, VA).
(§2) 1.6 Cellular Uptake Studies. All cellular uptake and specific binding studies were performed in triplicate to ensure reproducibility. Cells were detached using 0.05% trypsin (Corning), resuspended in 1 million cell aliquots in binding buffer, and incubated with various concentrations (range, 50 nM to 0.78 nM) of XY-FAP-01 for 1 hour at 37° C. and 5% CO2. […] Cellular uptake was terminated by washing cells with ice cold PBS (1×) three times. Cells were resuspended in binding buffer and transferred to a 96-well plate for imaging. Images were acquired on the LI-COR Pearl Impulse Imager (Lincoln, NE) using an excitation wavelength of 785 nm and detection of the emission wavelength at 800 nm. Images were analyzed using the LI-COR Pearl Impulse Software (Version 2.0) and fluorescence intensity was corrected for background signal and normalized to well area.

Data set [2] has as its system FAP-negative cell lines (PC3, NCIH226, and HCT116). As to the kind of experiment: Cellular uptake of XY-FAP-01 in FAP-negative cell lines (fluorescence imaging). Type of data set: cell-based, human. The settings on record: all concentrations (50 nM to 0.78 nM).
From the text: as §1
as §2, with “Cells were resuspended in binding buffer and transferred to a 96-well plate for imaging. Images were acquired on the LI-COR Pearl Impulse Imager (Lincoln, NE) using an excitation wavelength of 785 nm and detection of the emission wavelength at 800 nm.” left out

Data set [3] concerns FAP+ U-87-MG tumor xenograft. The data set is described as follows: Small-animal NIRF imaging, FAP positive xenograft. It counts as in vivo, NOD/SKID mice. As to the method:
(§3) 1.7 Small-Animal Near Infrared Fluorescence (NIRF) Imaging. NIRF images were acquired on the LI-COR Pearl Impulse Imager using an excitation wavelength of 785 nm and a detection wavelength of 800 nm. Mice utilized for imaging studies were anesthetized with 3% isofluorane (v/v) and maintained at 1.5% isofluorane for the imaging procedure. NOD/SKID mice bearing FAP+ U-87-MG and FAP-PC-3 tumor xenografts were injected with 10 nmol of XY-FAP-01 via tail vein injection and images were acquired at 30 min, 1 h, 2 h, 2.5 h, and 4 h after injection of tracer.
(§4) 1.11 Xenograft Tumor Model. 6-week old female NOD/SCID mice were subcutaneously injected in the upper left and right flanks with 1 million U87(FAP+) cells and PC3 cells (FAP-) in RPMI 1640 media supplemented with 1% FBS. Mice were monitored for tumor size and used for optical or SPECT/CT imaging when the size of tumor reached around 100 mm3.

In another data set the test system is FAP-PC-3 tumor xenograft. The data set is described as follows: Small-animal NIRF imaging, FAP negative xenograft. It counts as in vivo, NOD/SKID mice. Particulars: all imaging time points (30 min to 4 h). As to the method: as §3, §4
Data set [4] in a line: Small-animal NIRF imaging, tracer clearance. It counts as in vivo, NOD/SKID mice. Particulars: after one hour of distribution. As to the method: as §3, §4

What is called Ki is a dissociation constant, usually derived from enzyme kinetics or from competition with a known ligand. As for `CC1(C)C(=CC=C2CCCC(C=CC3=[N+](CCCCCC(=O)NCCCOc4ccc5nccc(C(=O)NCC(=O)N6CCC[C@H]6C#N)c5c4)c4ccc(S(=O)(=O)[O-])cc4C3(C)C)=C2Oc2ccc(S(=O)(=O)O)cc2)N(CCCCS(=O)(=O)O)c2ccc(S(=O)(=O)O)cc21` [XY-FAP-01], the Ki at human recombinant FAP is 1.26 nM. Besides, the “uptake of XY-FAP-01 in FAP-positive cell lines” value in data set [1] (50 nM to 0.78 nM, 1 hour at 37° C.) is on record as “concentration dependent uptake”. In addition, the “XY-FAP-01 binding when preblocked with a DPP-IV specific inhibitor” value in data set [1] (FAP-positive cell lines, 25 nM tracer, preblock with Sitagliptin) is “did not result in a change of binding ability”. Also, the “concentration at which saturated binding was observed” value in data set [1] (FAP-positive cell lines, 1 hour at 37° C.) came to 25 nM. For the same compound, the “XY-FAP-01 binding when preblocked with a FAP and DPP-IV specific inhibitor” value in data set [1] (FAP-positive cells, 25 nM tracer, preblock with Val-boroPro (Talabostat)) is “significantly inhibited”. In addition, the “uptake in vitro on FAP-α+ U87 cell line” value in data set [1] (summary statement) is “selective uptake”. Moreover, the “binding of XY-FAP-01 in FAP-negative cell lines” value in data set [2] is reported as “no significant binding”. Moreover, the “tracer uptake in U-87-MG xenograft (NIRF)” value in data set [3] (10 nmol via tail vein, as early as 30 minutes post injection) is recorded as “specific uptake”. Moreover, the “tracer uptake in the positive xenograft (NIRF)” value in data set [3] (after four hours of distribution) is listed as “retained”. Also, the “uptake in vivo on FAP-α+ U87 tumor” value in data set [3] (summary statement) is on record as “selective uptake”. Besides, in the data set on FAP-PC-3 tumor xenograft, the “tracer uptake in the FAP negative tumor (NIRF)” value is recorded as “no significant uptake”. Besides, in data set [4], the “tracer clearance (NIRF)” value is “tracer clearance via the bladder was observed”.
